Source: patent publication US7160884B2, “1-/2-substituted-1H/-2H-[1,2,3]triazolo[4,5-g]phthalazine-4,9-dione compound, process for the preparation thereof and pharmaceutical composition comprising the same” (EWHA University-Industry Collaboration Foundation, priority 2005, dated 2007)
Like-named read-outs stand apart in the source and are kept apart here.

Legend:
[1] = tested on: human gastric cancer cell line (SNU-638); experiment: SRB cytotoxicity evaluation, SNU-638; type: cell-based; settings: 3 days culture
Experimental: (§1) To verify the cytotoxic effect of the compounds prepared in Examples above, cytotoxicity was induced in cancer cells and SRB (Sulforhodamin B dye-staining) evaluation was conducted.
(§2) Cancer cell lines used herein (NCI, US) was human gastric cancer cell line (SNU-638), human colon cancer cell line (Col2), human fibrosarcoma cell line (HT1080), and human myelogenous leukemia cell line (HL-60).
(§3) Each compound prepared in Examples was dissolved in 10% DMSO. 10 μL of the solution and 190 μL of cell suspension (5×10^4 cells/ml) were placed in standard 96-well plate and cultured in 5% CO2 condition at 37° C. for 3 days. 190 μL of the same cell suspension was placed in at least 16 wells, followed by cultivation at 37° C. for 30 minutes, and used as zero-day control. After cultivation for a predetermined period of time, cells were fixed by adding 50 μL of 50% trichloroacetic acid in each well, followed by incubation at 4° C. for 30 minutes. Cells were washed with water 5 times, dried at room temperature, and stained by adding 100 μL of 1% acetic acid solution containing […] in each well, and then washed with 1% acetic acid after 1 hour and dried in air. 200 μL of 10 mM Tris-base was added in each well and stirred well, thereby dissolving the bound staining agent, followed by measurement of absorbance at 515 nm by using ELISA reader. Viability was determined based on the difference between the zero-day control group and 10% DMSO-treated control group. Viability about ellipticin and doxorubicin were also measured for comparison.

[2] = tested on: human colon cancer cell line (Col2); experiment: SRB cytotoxicity evaluation, Col2; type: cell-based; settings: 3 days culture
Experimental: as §1, §2, §3

[3] = tested on: human fibrosarcoma cell line (HT1080); experiment: SRB cytotoxicity evaluation, HT1080; type: cell-based; settings: for IC50: SRB, 3 days culture, HT1080
Experimental: as §1, §2, §3

[4] = tested on: human myelogenous leukemia cell line (HL-60); experiment: SRB cytotoxicity evaluation, HL-60; type: cell-based; settings: 3 days culture
Experimental: as §1, §2, §3

[5] = tested on: human lung cancer cell line (A549); experiment: SRB cytotoxicity evaluation, A549; type: cell-based; settings: for IC50: SRB, A549
Experimental: as §1, §3
(§4) Meanwhile, SRB evaluation was also conducted for human lung cancer cell line (A549), human ovarian cancer cell line (SK-OV-3), human melanoma cell line (SK-MEL-2), human central nervous system tumor cell line (XF498), and human colon cancer cell line (HCT15), and the results are shown in TABLE 2.

[6] = tested on: human ovarian cancer cell line (SK-OV-3); experiment: SRB cytotoxicity evaluation, SK-OV-3; type: cell-based; settings: for IC50: SRB, SK-OV-3
Experimental: as §1, §3, §4

[7] = tested on: human melanoma cell line (SK-MEL-2); experiment: SRB cytotoxicity evaluation, SK-MEL-2; type: cell-based; settings: for IC50: SRB, SK-MEL-2
Experimental: as §1, §3, §4

[8] = tested on: human central nervous system tumor cell line (XF498); experiment: SRB cytotoxicity evaluation, XF498; type: cell-based; settings: for IC50: SRB, XF498
Experimental: as §1, §3, §4

[9] = tested on: human colon cancer cell line (HCT15); experiment: SRB cytotoxicity evaluation, HCT15; type: cell-based
Experimental: as §1, §3, §4

[10] = tested on: human gastric cancer adenocarcinoma cell line; settings: cited from earlier work
[11] = comparison among tested compounds, in words

CCCCn1nnc2c1C(=O)c1cnncc1C2=O [Example 5a, 1-n-butyl-1H-[1,2,3]triazolo[4,5-g]phthalazin-4,9-dione]
IC50 ([1]; Homo sapiens, 72 h): 155 nM | IC50 ([2]; Homo sapiens, 72 h): 421 nM | IC50 ([3]; Homo sapiens, HT-1080, 72 h): 99 nM | IC50 ([4]; Homo sapiens, 72 h): 89 nM | IC50 ([5]; Homo sapiens): 81 nM | IC50 ([6]; Homo sapiens): 21 nM | IC50 ([7]; Homo sapiens): 23 nM | IC50 ([8]; Homo sapiens): 181 nM | IC50 ([9]; Homo sapiens, HCT-15): 177 nM

CCCn1nnc2c1C(=O)c1cnncc1C2=O [Example 4a, 1-n-propyl-1H-[1,2,3]triazolo[4,5-g]phthalazin-4,9-dione]
IC50 ([1]; Homo sapiens, 72 h): 212 nM | IC50 ([2]; Homo sapiens, 72 h): 353 nM | IC50 ([3]; Homo sapiens, HT-1080, 72 h): 75 nM | IC50 ([4]; Homo sapiens, 72 h): 83 nM | IC50 ([5]; Homo sapiens): 26 nM | IC50 ([6]; Homo sapiens): 14 nM | IC50 ([7]; Homo sapiens): 20 nM | IC50 ([8]; Homo sapiens): 85 nM | IC50 ([9]; Homo sapiens, HCT-15): 176 nM

COc1ccc(Cn2nnc3c2C(=O)c2cnncc2C3=O)cc1 [Example 1a, 1-(4-methoxybenzyl)-1H-[1,2,3]triazolo[4,5-g]phthalazin-4,9-dione]
IC50 ([1]; Homo sapiens, 72 h): 257 nM | IC50 ([2]; Homo sapiens, 72 h): 2380 nM | IC50 ([3]; Homo sapiens, HT-1080, 72 h): 330 nM | IC50 ([4]; Homo sapiens, 72 h): 130 nM | IC50 ([5]; Homo sapiens): 54 nM | IC50 ([6]; Homo sapiens): 12 nM | IC50 ([7]; Homo sapiens): 41 nM | IC50 ([8]; Homo sapiens): 118 nM | IC50 ([9]; Homo sapiens, HCT-15): 59 nM

CCCCn1nc2c(n1)C(=O)c1cnncc1C2=O [Example 5b, 2-n-butyl-2H-[1,2,3]triazolo[4,5-g]phthalazin-4,9-dione]
IC50 ([1]; Homo sapiens, 72 h): 50 nM | IC50 ([2]; Homo sapiens, 72 h): 66 nM | IC50 ([3]; Homo sapiens, HT-1080, 72 h): 30 nM | IC50 ([4]; Homo sapiens, 72 h): 151 nM | IC50 ([5]; Homo sapiens): 18 nM | IC50 ([6]; Homo sapiens): 17 nM | IC50 ([7]; Homo sapiens): 15 nM | IC50 ([8]; Homo sapiens): 19 nM | IC50 ([9]; Homo sapiens, HCT-15): 18 nM

CCn1nc2c(n1)C(=O)c1cnncc1C2=O [Example 3b, 2-ethyl-2H-[1,2,3]triazolo[4,5-g]phthalazin-4,9-dione]
IC50 ([1]; Homo sapiens, 72 h): 46 nM | IC50 ([2]; Homo sapiens, 72 h): 170 nM | IC50 ([3]; Homo sapiens, HT-1080, 72 h): 204 nM | IC50 ([4]; Homo sapiens, 72 h): 90 nM | IC50 ([5]; Homo sapiens): 18 nM | IC50 ([6]; Homo sapiens): 3 nM | IC50 ([7]; Homo sapiens): 4 nM | IC50 ([8]; Homo sapiens): 17 nM | IC50 ([9]; Homo sapiens, HCT-15): 18 nM

Cn1nnc2c1C(=O)c1cnncc1C2=O [Example 2a, 1-methyl-1H-[1,2,3]triazolo[4,5-g]phthalazin-4,9-dione]
IC50 ([1]; Homo sapiens, 72 h): 241 nM | IC50 ([2]; Homo sapiens, 72 h): 311 nM | IC50 ([3]; Homo sapiens, HT-1080, 72 h): 73 nM | IC50 ([4]; Homo sapiens, 72 h): 82 nM | IC50 ([5]; Homo sapiens): 4 nM | IC50 ([6]; Homo sapiens): 3 nM | IC50 ([7]; Homo sapiens): 8 nM | IC50 ([8]; Homo sapiens): 35 nM | IC50 ([9]; Homo sapiens, HCT-15): 103 nM

COc1cccc2c1C(=O)c1c(O)c3c(c(O)c1C2=O)C[C@@](O)(C(=O)CO)C[C@@H]3O[C@H]1C[C@H](N)[C@H](O)[C@H](C)O1 [Doxorubicin, reference compound]
IC50 ([1]; Homo sapiens, 72 h): 52 nM | IC50 ([2]; Homo sapiens, 72 h): 98 nM | IC50 ([3]; Homo sapiens, HT-1080, 72 h): 22 nM | IC50 ([4]; Homo sapiens, 72 h): 44 nM | IC50 ([5]; Homo sapiens): 22 nM | IC50 ([6]; Homo sapiens): 41 nM | IC50 ([7]; Homo sapiens): 19 nM | IC50 ([8]; Homo sapiens): 44 nM | IC50 ([9]; Homo sapiens, HCT-15): 251 nM

O=C1c2cnncc2C(=O)c2[nH]nnc21 [Example 1b, 1H-[1,2,3]triazolo[4,5-g]phthalazin-4,9-dione]
IC50 ([1]; Homo sapiens, 72 h): > 5000 nM | IC50 ([2]; Homo sapiens, 72 h): > 5000 nM | IC50 ([3]; Homo sapiens, HT-1080, 72 h): > 5000 nM | IC50 ([4]; Homo sapiens, 72 h): > 5000 nM | IC50 ([5]; Homo sapiens): 9020 nM | IC50 ([6]; Homo sapiens): 7640 nM | IC50 ([7]; Homo sapiens): > 10000 nM | IC50 ([8]; Homo sapiens): > 10000 nM | IC50 ([9]; Homo sapiens, HCT-15): > 10000 nM

Cc1nc2c(n1-c1ccc(Br)cc1)C(=O)c1nccnc1C2=O [2-methyl-4,9-dehydro-1-(4-bromophenyl)-1H-imidazo[4,5-g]-quinoxaline-4,9-dione]
cytotoxicity compared with cisplatin or doxorubicin [10]: higher than that of cisplatin or doxorubicin

CCCn1nc2c(n1)C(=O)c1cnncc1C2=O [Example 4b, 2-n-propyl-2H-[1,2,3]triazolo[4,5-g]phthalazin-4,9-dione]
IC50 ([1]; Homo sapiens, 72 h): 43 nM | IC50 ([2]; Homo sapiens, 72 h): 57 nM | IC50 ([3]; Homo sapiens, HT-1080, 72 h): 33 nM | IC50 ([4]; Homo sapiens, 72 h): 157 nM | IC50 ([5]; Homo sapiens): 19 nM | IC50 ([6]; Homo sapiens): 9 nM | IC50 ([7]; Homo sapiens): 9 nM | IC50 ([8]; Homo sapiens): 18 nM | IC50 ([9]; Homo sapiens, HCT-15): 18 nM

CCn1nnc2c1C(=O)c1cnncc1C2=O [Example 3a, 1-ethyl-1H-[1,2,3]triazolo[4,5-g]phthalazin-4,9-dione]
IC50 ([1]; Homo sapiens, 72 h): 126 nM | IC50 ([2]; Homo sapiens, 72 h): 341 nM | IC50 ([3]; Homo sapiens, HT-1080, 72 h): 68 nM | IC50 ([4]; Homo sapiens, 72 h): 56 nM | IC50 ([5]; Homo sapiens): 6 nM | IC50 ([6]; Homo sapiens): 3 nM | IC50 ([7]; Homo sapiens): 8 nM | IC50 ([8]; Homo sapiens): 34 nM | IC50 ([9]; Homo sapiens, HCT-15): 39 nM

Cn1nc2c(n1)C(=O)c1cnncc1C2=O [Example 2b, 2-methyl-2H-[1,2,3]triazolo[4,5-g]phthalazin-4,9-dione]
IC50 ([1]; Homo sapiens, 72 h): 54 nM | IC50 ([2]; Homo sapiens, 72 h): 132 nM | IC50 ([3]; Homo sapiens, HT-1080, 72 h): 7.8 nM | cytotoxicity rank against HT1080 [3, 11]: highest cytotoxicity | IC50 ([4]; Homo sapiens, 72 h): 124 nM | IC50 ([5]; Homo sapiens): 2 nM | cytotoxicity rank against A549 [5, 11]: highest cytotoxicity | IC50 ([6]; Homo sapiens): 0.4 nM | cytotoxicity rank against SK-OV-3 [6, 11]: highest cytotoxicity | IC50 ([7]; Homo sapiens): 2 nM | cytotoxicity rank against SK-MEL-2 [7, 11]: highest cytotoxicity | IC50 ([8]; Homo sapiens): 4 nM | cytotoxicity rank against XF498 [8, 11]: highest cytotoxicity | IC50 ([9]; Homo sapiens, HCT-15): 20 nM

Cc1c2ccncc2c(C)c2c1[nH]c1ccccc12 [Ellipticin, reference compound]
IC50 [1]: 2990 nM | IC50 [2]: 2620 nM | IC50 [3]: 1930 nM | IC50 [4]: 3370 nM | IC50 [5]: 1320 nM | IC50 [6]: 1470 nM | IC50 [7]: 2410 nM | IC50 [8]: 3640 nM | IC50 [9]: 3720 nM
